Several values for one entry are separate records, joined by “and”; a condition that tells them apart may be missing. Equal values may be shown once. Results filed as inconclusive are left out.
Test system: nude mice, HT29 intrarenal xenograft, tumor weight T/C
Assay: NCI In Vivo Anticancer Drug Screen. Data for tumor model HT29;CX-1 Human Adenocarcinoma (MER+) (intrarenal inoculation) in NU/NU Swiss (nude) mice
Conditions: endpoint: mean tumor weight change, higher = larger tumour
How it was run: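 Tumor-bearing mice received test compound or vehicle, and tumor size or survival was recorded. Values are the treated-group measurement divided by the vehicle-treated control measurement.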

[1] = dose: 200.0 mg/kg/injection, schedule: Q04DX004 (sc), vehicle: saline with Tween-80
[2] = dose: 100.0 mg/kg/injection, schedule: Q04DX004 (sc), vehicle: water
[3] = dose: 300.0 mg/kg/injection, schedule: Q04DX004 (sc), vehicle: Klucel (hydroxypropylcellulose) (HPC)
[4] = dose: 50.0 mg/kg/injection, schedule: Q04DX004 (sc), vehicle: saline with Tween-80
[5] = dose: 150.0 mg/kg/injection, schedule: Q04DX004 (sc), vehicle: saline with Tween-80
[6] = dose: 300.0 mg/kg/injection, schedule: Q04DX004 (sc), vehicle: saline with Tween-80
[7] = dose: 600.0 mg/kg/injection, schedule: Q04DX004 (sc), vehicle: saline with Tween-80
[8] = dose: 1200.0 mg/kg/injection, schedule: Q04DX004 (sc), vehicle: saline with Tween-80
[9] = dose: 50.0 mg/kg/injection, schedule: Q01DX010 (sc), vehicle: saline
[10] = dose: 100.0 mg/kg/injection, schedule: Q04DX004 (sc), vehicle: saline with Tween-80

Structure (SMILES): C[Si](C)(C)O/C=C1/CCOC1=O
- T/C (dose: 100.0 mg/kg/injection, schedule: Q04DX004 (sc), vehicle: suspension in saline): 98 % of control
- T/C (dose: 200.0 mg/kg/injection, schedule: Q04DX004 (sc), vehicle: suspension in saline): 93 % of control
- T/C (dose: 800.0 mg/kg/injection, schedule: Q04DX004 (sc), vehicle: suspension in saline): 107 % of control

Structure (SMILES): Cc1ccc(N)c(N)c1
- T/C [1]: 151 % of control
- T/C (dose: 400.0 mg/kg/injection, schedule: Q04DX004 (sc), vehicle: saline with Tween-80): 85 % of control
- T/C (dose: 800.0 mg/kg/injection, schedule: Q04DX004 (sc), vehicle: saline with Tween-80): 124 % of control

Structure (SMILES): NC(CCl)=NCC12CC3CC(CC(C3)C1)C2
- T/C (dose: 37.5 mg/kg/injection, schedule: Q04DX004 (sc), vehicle: Klucel (hydroxypropylcellulose) (HPC)): 97 % of control
- T/C (dose: 75.0 mg/kg/injection, schedule: Q04DX004 (sc), vehicle: Klucel (hydroxypropylcellulose) (HPC)): 114 % of control

Structure (SMILES): CNc1nc(N(C)C)nc(N(C)C)n1
- T/C (dose: 12.5 mg/kg/injection, schedule: Q04DX004 (sc), vehicle: water): 54 % of control
- T/C (dose: 15.0 mg/kg/injection, schedule: Q01DX010 (sc), vehicle: water): 89 % of control
- T/C (dose: 25.0 mg/kg/injection, schedule: Q04DX004 (sc), vehicle: water): 75 % of control
- T/C (dose: 50.0 mg/kg/injection, schedule: Q04DX004 (sc), vehicle: water): 51 % of control
- T/C [2]: 51 % of control

Structure (SMILES): C[Si](C)(C)OSc1ccccc1[N+](=O)[O-]
- T/C [3]: 79 % of control
- T/C (dose: 600.0 mg/kg/injection, schedule: Q04DX004 (sc), vehicle: Klucel (hydroxypropylcellulose) (HPC)): 61 % of control
- T/C (dose: 1200.0 mg/kg/injection, schedule: Q04DX004 (sc), vehicle: Klucel (hydroxypropylcellulose) (HPC)): 107 % of control
- T/C (dose: 2400.0 mg/kg/injection, schedule: Q04DX004 (sc), vehicle: Klucel (hydroxypropylcellulose) (HPC)): 93 % of control

Structure (SMILES): CN(Cc1cnc2nc(N)nc(N)c2n1)c1ccc(C(=O)N[C@@H](CCC(=O)O)C(=O)O)cc1
- T/C (dose: 0.5 mg/kg/injection, schedule: Q01DX010 (sc), vehicle: sodium bicarbonate): 116 % of control
- T/C (dose: 1.0 mg/kg/injection, schedule: Q01DX010 (sc), vehicle: sodium bicarbonate): 41 % of control

Structure (SMILES): Cc1noc(N)c1N
- T/C [2]: 200 % of control
- T/C (dose: 400.0 mg/kg/injection, schedule: Q04DX004 (sc), vehicle: water): 98 % of control
- T/C (dose: 800.0 mg/kg/injection, schedule: Q04DX004 (sc), vehicle: water): 200 % of control

Structure (SMILES): O=Cc1ccc(C(Cl)(Cl)Cl)cc1
- T/C (dose: 100.0 mg/kg/injection, schedule: Q01DX010 (sc), vehicle: saline with Tween-80): 121 % of control
- T/C (dose: 400.0 mg/kg/injection, schedule: Q01DX010 (sc), vehicle: saline with Tween-80): 107 % of control

Structure (SMILES): C/C=C/c1cc2c(c(=O)o1)C(=O)[C@@H](O)[C@H](C)O2
- T/C [4]: 107 % of control
- T/C [1]: 79 % of control

Structure (SMILES): COCC(O)Cn1ccnc1[N+](=O)[O-] (stereo not given)
- T/C (dose: 300.0 mg/kg/injection, schedule: Q04DX004 (sc), vehicle: suspension in saline): 86 % of control
- T/C (dose: 600.0 mg/kg/injection, schedule: Q04DX004 (sc), vehicle: suspension in saline): 80 % of control
- T/C (dose: 1200.0 mg/kg/injection, schedule: Q04DX004 (sc), vehicle: suspension in saline): 75 % of control

Structure (SMILES): O=S1(=O)C=C(c2ccccc2)C(c2ccccc2)=C1
- T/C [5]: 58 % of control
- T/C [6]: 83 % of control
- T/C [7]: 97 % of control
- T/C [8]: 85 % of control

Structure (SMILES): Brc1ccc(C[N+]23CN4CN(CN(C4)C2)C3)cc1
- T/C [5]: 69 % of control
- T/C [6]: 101 % of control

Structure (SMILES): O=C(O)CSc1c(Cl)c(=O)oc2ccc(Cl)cc12
- T/C [3]: 99 % of control

Structure (SMILES): CCCCCCCCCCCC(=O)NC1CC(O[C@H]2C[C@](O)(C(=O)CO)Cc3c(O)c4c(c(O)c32)C(=O)c2c(OC)cccc2C4=O)OC(C)C1O (stereo not given in full)
- T/C (dose: 100.0 mg/kg/injection, schedule: Q01DX010 (sc), vehicle: water): 105 % of control
- T/C (dose: 200.0 mg/kg/injection, schedule: Q01DX010 (sc), vehicle: water): 68 % of control
- T/C (dose: 400.0 mg/kg/injection, schedule: Q01DX010 (sc), vehicle: water): 26 % of control

Structure (SMILES): CS(=O)(=O)OCCN(CCOS(C)(=O)=O)c1ccc(C=O)cc1
- T/C (dose: 12.5 mg/kg/injection, schedule: Q01DX010 (sc), vehicle: saline): 100 % of control
- T/C (dose: 25.0 mg/kg/injection, schedule: Q01DX010 (sc), vehicle: saline): 90 % of control
- T/C [9]: 37 % of control

Structure (SMILES): CC(C)NC(=O)OCc1c(COC(=O)NC(C)C)c(-c2ccc(Cl)c(Cl)c2)n2c1CCC2
- T/C (dose: 25.0 mg/kg/injection, schedule: Q01DX010 (sc), vehicle: distilled water + Tween-80): 107 % of control
- T/C (dose: 50.0 mg/kg/injection, schedule: Q01DX010 (sc), vehicle: distilled water + Tween-80): 15 % of control
- T/C (dose: 200.0 mg/kg/injection, schedule: Q01DX010 (sc), vehicle: distilled water + Tween-80): 60 % of control and 78 % of control
- T/C (dose: 800.0 mg/kg/injection, schedule: Q01DX010 (sc), vehicle: distilled water + Tween-80): 44 % of control

Structure (SMILES): CN=C(N)N/N=C(\C)c1ccc2c(c1)Cc1cc(/C(C)=N/NC(N)=NC)ccc1-2
- T/C (dose: 25.0 mg/kg/injection, schedule: Q04DX004 (sc), vehicle: saline with Tween-80): 102 % of control
- T/C [4]: 53 % of control
- T/C [10]: 105 % of control
- T/C [1]: 50 % of control

Structure (SMILES): O=C1SC(c2ccccc2)=S=C1c1ccccc1
- T/C [6]: 102 % of control
- T/C [8]: 90 % of control

Structure (SMILES): COc1cc2cc3c4cc(OC)c(OC)cc4cc[n+]3c(C)c2cc1OC (tested in a mixture with another compound)
- T/C [9]: 76 % of control
- T/C (dose: 100.0 mg/kg/injection, schedule: Q01DX010 (sc), vehicle: saline): 68 % of control

Structure (SMILES): CN1C(=O)CC2(CCN(CCCC(=O)c3ccc(F)cc3)CC2)C1=O
- T/C (dose: 75.0 mg/kg/injection, schedule: Q04DX004 (sc), vehicle: suspension in saline): 120 % of control

Structure (SMILES): CCOC(=O)Nc1cc2c(c(N)n1)N=C(c1ccc(Cl)cc1Cl)CN2
- T/C (dose: 37.5 mg/kg/injection, schedule: Q04DX004 (sc), vehicle: saline with Tween-80): 92 % of control
- T/C (dose: 75.0 mg/kg/injection, schedule: Q04DX004 (sc), vehicle: saline with Tween-80): 150 % of control
- T/C [5]: 78 % of control
- T/C [6]: 83 % of control

Structure (SMILES): Cc1c2cc(Cl)c3ccccc3c2c[n+]2ccccc12
- T/C [6]: 101 % of control
- T/C [7]: 82 % of control
- T/C [8]: 103 % of control

Structure (SMILES): O=[N+]([O-])c1ccc(-n2[nH]nnc2=S)cc1
- T/C (dose: 100.0 mg/kg/injection, schedule: Q04DX004 (sc), vehicle: Klucel (hydroxypropylcellulose) (HPC)): 94 % of control
- T/C (dose: 200.0 mg/kg/injection, schedule: Q04DX004 (sc), vehicle: Klucel (hydroxypropylcellulose) (HPC)): 92 % of control
- T/C (dose: 400.0 mg/kg/injection, schedule: Q04DX004 (sc), vehicle: Klucel (hydroxypropylcellulose) (HPC)): 96 % of control
- T/C (dose: 800.0 mg/kg/injection, schedule: Q04DX004 (sc), vehicle: Klucel (hydroxypropylcellulose) (HPC)): 80 % of control

Structure (SMILES): COC1OC(CO)C(O)C(NC(=O)N(C)N=O)C1O (stereo not given)
- T/C (dose: 225.0 mg/kg/injection, schedule: Q04DX004 (sc), vehicle: suspension in saline): 104 % of control
- T/C (dose: 450.0 mg/kg/injection, schedule: Q04DX004 (sc), vehicle: suspension in saline): 95 % of control
- T/C (dose: 900.0 mg/kg/injection, schedule: Q04DX004 (sc), vehicle: suspension in saline): 33 % of control

Structure (SMILES): N#CCCSC(=S)C1CCCC1=N (stereo not given)
- T/C (dose: 225.0 mg/kg/injection, schedule: Q04DX004 (sc), vehicle: saline with Tween-80): 104 % of control
- T/C (dose: 450.0 mg/kg/injection, schedule: Q04DX004 (sc), vehicle: saline with Tween-80): 106 % of control
- T/C (dose: 900.0 mg/kg/injection, schedule: Q04DX004 (sc), vehicle: saline with Tween-80): 114 % of control
- T/C (dose: 1800.0 mg/kg/injection, schedule: Q04DX004 (sc), vehicle: saline with Tween-80): 103 % of control

Structure (SMILES): COC1C(CO)OC(n2cnc3c(=S)nc(N)[nH]c32)C1O (stereo not given)
- T/C (dose: 150.0 mg/kg/injection, schedule: Q04DX004 (sc), vehicle: Klucel (hydroxypropylcellulose) (HPC)): 116 % of control

Structure (SMILES): CC1=C(C)C(=O)O[C@@H]([C@](C)(O)[C@]2(O)CC[C@@]3(O)[C@@H]4C[C@H]5O[C@]56[C@@H](O)C=CC(=O)[C@]6(C)[C@H]4CC[C@]23C)C1
- T/C (dose: 4.0 mg/kg/injection, schedule: Q01DX010 (sc), vehicle: saline): 169 % of control
- T/C (dose: 64.0 mg/kg/injection, schedule: Q01DX010 (sc), vehicle: saline): 46 % of control

Structure (SMILES): CC1(C)COCN1COC1CCCCC1
- T/C (dose: 100.0 mg/kg/injection, schedule: Q04DX004 (sc), vehicle: saline): 34 % of control

Structure (SMILES): C=C1N(C)c2ccccc2C1(C)C
- T/C [4]: 66 % of control
- T/C [10]: 73 % of control
- T/C [1]: 94 % of control

— PubChem BioAssay AID206 (DTP/NCI, 2004)
